Data on 26 molecules can be found in US11267824B2, “Inhibitors of indoleamine 2,3-dioxygenase and/or tryptophan 2,3-dioxygenase” (IDORSIA PHARMACEUTICALS LTD, priority 2017, dated 2022).

The target in test [1] is Recombinant human TDO comprising amino acids 19-407 (Homo sapiens (Human), UniProt P48775). In words: TDO2 enzymatic assay (TDO inhibitory activity). The class given is biochemical. The conditions noted are these: 15 nM enzyme, 200 μM L-tryptophan, pH7, 30 min pre-incubation, NFK quantified by LCMS; mean values if measured multiple times; read-out: hTDO activity (IC50 in nM). On the procedure: 2) Testing Compounds for TDO Inhibitory Activity in a TDO2 Enzymatic Assay:
Recombinant human TDO comprising amino acids 19-407 with a N-terminal hexahistidine tag expressed in E. coli and purified to homogeneity is incubated at a final concentration of 15 nM in assay buffer consisting of 75 mM phosphate buffer at pH7 supplemented with 100 μM ascorbic acid, 50 U/ml Catalase, 0.01% BSA, and 0.01% Tween 20 (protocol modified from Seegers et al, JBS 2014). Example compounds are serially diluted in DMSO, further diluted in phosphate buffer, and added to the reaction mixture at final concentrations ranging from 10 μM to 0.5 nM. The final DMSO concentration is 0.6%. Following a pre-incubation of 30 minutes at RT, the reaction is started by the addition of L-tryptophan at a final concentration of 200 μM in assay buffer. After 30 minutes of incubation at RT, 3 μL of the reaction mixture are transferred to a 384 deep well plate containing 25 μL of deionized water. 100 μl of 200 nM L-Tryptophan-(indole-d5) in cold 100% methanol are added followed by a 10 minutes centrifugation at 4,000 rpm at 4° C. An additional 75 μL of deionized water are then added and followed by a 10 minutes centrifugation at 4,000 rpm at 4° C. The product of the reaction N′-Formylkynurenine (NFK) is quantified by LCMS and normalized to the L-Tryptophan-(indole-d5) signal. Samples with 0.6% DMSO (0% effect) and a TDO/IDO inhibitor (100% effect) are used as control samples to set the parameters for the non-linear regression necessary for the determination of the half-maximal inhibitory concentration (IC50) for each compound. For each compound concentration the percentage of activity compared to 0% and 100% effect is calculated as average±STDEV (each concentration measured in duplicate). IC50 values and curves are generated with XLfit software (IDBS) using Dose-Response One Site model 203 (four parameter logistic curve model). When compounds are measured multiple times, mean values are given.

Test [2] has as its target Recombinant full-length human IDO1 (Homo sapiens (Human), UniProt P14902). In words: IDO1 enzymatic assay (IDO inhibitory activity). The class given is biochemical. The conditions noted are these: 2 nM enzyme, 5 μM L-tryptophan, pH6.5, 30 min pre-incubation, NFK quantified by LCMS; mean values if measured multiple times; read-out: hIDO activity (IC50 in nM). How it is done:
1) Testing Compounds for IDO Inhibitory Activity in an IDO1 Enzymatic Assay:
Recombinant full-length human IDO1 with a N-terminal hexahistidine tag expressed in E. coli and purified to homogeneity is incubated at a final concentration of 2 nM in assay buffer consisting of 37.5 mM phosphate buffer at pH6.5 supplemented with 10 mM sodium L-ascorbate, 0.45 μM methylene blue, 50 U/ml catalase, 0.01% BSA, and 0.01% Tween 20 (protocol modified from Seegers et al, JBS 2014). Example compounds are serially diluted in DMSO, further diluted in phosphate buffer, and added to the enzyme at final concentrations ranging from 10 μM to 0.5 nM. The final DMSO concentration is 0.6%. Following a pre-incubation of 30 minutes at RT, the reaction is started by the addition of L-tryptophan at a final concentration of 5 μM in assay buffer. After 30 minutes of incubation at RT, 3 μL of the reaction mixture are transferred to a 384 deep well plate containing 25 μL of deionized water. 100 μl of 200 nM L-Tryptophan-(indole-d5) in cold 100% methanol are added followed by a 10 minutes centrifugation at 4,000 rpm at 4° C. An additional 75 μL of deionized water are then added and followed by a 10 minutes centrifugation at 4,000 rpm at 4° C. The product of the reaction N′-Formylkynurenine (NFK) is quantified by LCMS and normalized to the L-Tryptophan-(indole-d5) signal. Samples with 0.6% DMSO (0% effect) and a TDO/IDO inhibitor (100% effect) are used as control samples to set the parameters for the non-linear regression necessary for the determination of the half-maximal inhibitory concentration (IC50) for each compound. For each compound concentration the percentage of activity compared to 0% and 100% effect is calculated as average ±STDEV (each concentration measured in duplicate). IC50 values and curves are generated with XLfit software (IDBS) using Dose-Response One Site model 203 (four parameter logistic curve model). When compounds are measured multiple times, mean values are given.

The structures appear in SMILES notation.

Recombinant human TDO comprising amino acids 19-407, sequence (P48775 19-406 limits assumed): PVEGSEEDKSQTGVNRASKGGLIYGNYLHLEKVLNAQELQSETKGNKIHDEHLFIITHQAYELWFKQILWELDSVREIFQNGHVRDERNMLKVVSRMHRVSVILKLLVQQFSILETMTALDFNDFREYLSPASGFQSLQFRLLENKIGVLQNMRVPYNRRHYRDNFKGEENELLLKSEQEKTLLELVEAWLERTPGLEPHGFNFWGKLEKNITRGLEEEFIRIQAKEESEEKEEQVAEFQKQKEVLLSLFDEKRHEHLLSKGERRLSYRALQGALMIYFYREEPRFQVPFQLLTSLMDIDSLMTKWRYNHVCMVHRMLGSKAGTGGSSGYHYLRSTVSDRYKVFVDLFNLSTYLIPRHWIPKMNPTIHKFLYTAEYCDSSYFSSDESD
Recombinant full-length human IDO1, sequence (P14902 whole entry): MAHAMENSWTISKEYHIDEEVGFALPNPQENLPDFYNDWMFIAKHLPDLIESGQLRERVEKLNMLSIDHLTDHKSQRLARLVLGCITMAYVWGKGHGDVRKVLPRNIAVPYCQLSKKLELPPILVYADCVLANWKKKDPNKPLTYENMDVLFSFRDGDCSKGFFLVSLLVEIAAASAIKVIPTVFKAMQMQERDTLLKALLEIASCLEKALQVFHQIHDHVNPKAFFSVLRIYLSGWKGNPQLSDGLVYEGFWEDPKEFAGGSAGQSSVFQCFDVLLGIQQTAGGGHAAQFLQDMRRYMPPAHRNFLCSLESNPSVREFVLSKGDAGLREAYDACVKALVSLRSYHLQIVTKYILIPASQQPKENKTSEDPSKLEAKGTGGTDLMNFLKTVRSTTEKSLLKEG

Take `OC(CC1CCC1)c1c(C2CC2)sc2cncn12` (racemic) [Example 40, rac-2-Cyclobutyl-1-(2-cyclopropyl-imidazo[5,1-b]thiazol-3-yl)-ethanol]: the values for the IC50 in test [1] and in test [2] were 697 nM and 44.9 nM, respectively.

For the molecule `OC(CC1CCC(C(F)(F)F)CC1)c1c(C2CC2)sc2cncn12` (racemic) [Example 42, rac-1-(2-Cyclopropyl-imidazo[5,1-b]thiazol-3-yl)-2-(4-trifluoromethyl-cyclohexyl)-ethanol], the IC50 – broadly, the concentration at which inhibition is half-maximal – is 520 nM in test [1] and 92.2 nM in test [2].

For `OC(c1c(C2CC2)sc2cncn12)C1CCC1` (racemic) [Example 43, rac-Cyclobutyl-(2-cyclopropyl-imidazo[5,1-b]thiazol-3-yl)-methanol], the figures for the IC50 in test [1] and in test [2] were 907 nM and 25.1 nM, respectively.

For the molecule `CC1CCC(C(O)c2c(C3CC3)sc3cncn23)CC1` (racemic) [Example 44, rac-(2-Cyclopropyl-imidazo[5,1-b]thiazol-3-yl)-(4-methyl-cyclohexyl)-methanol], the IC50 in test [1] came out at 383 nM; in test [2], 15.8 nM.

On to `CCC1CCC(C(O)c2c(C3CC3)sc3cncn23)CC1` (racemic) [Example 45, rac-(2-Cyclopropyl-imidazo[5,1-b]thiazol-3-yl)-(4-ethyl-cyclohexyl)-methanol], for which the IC50 in test [1] was found to be 583 nM; in test [2], 35.7 nM.

On to `OC(c1c(C2CC2)sc2cncn12)C1CCCC1` (racemic) [Example 46, rac-Cyclopentyl-(2-cyclopropyl-imidazo[5,1-b]thiazol-3-yl)-methanol], for which the IC50 was 473 nM in test [1] and 11.4 nM in test [2].

As for `CC1CCC(CC(O)c2c(C3CC3)sc3cncn23)CC1` (racemic) [Example 49, rac-1-(2-Cyclopropyl-imidazo[5,1-b]thiazol-3-yl)-2-(4-methyl-cyclohexyl)-ethanol], the IC50 in test [1] was 638 nM; in test [2] it was 50.3 nM.

For `OC(c1ccccc1)c1c(C2CC2)sc2cncn12` (racemic) [Example 50, rac-(2-Cyclopropyl-imidazo[5,1-b]thiazol-3-yl)-phenyl-methanol], the IC50 in test [1] was determined as 989 nM; in test [2], 50.5 nM.

As to `Cc1ccc(C(O)c2c(C3CC3)sc3cncn23)cc1` (racemic) [Example 51, rac-(2-Cyclopropyl-imidazo[5,1-b]thiazol-3-yl)-p-tolyl-methanol], the IC50 was found to be 1460 nM in test [1] and 48.4 nM in test [2].

Take `Cc1cccc(C(O)c2c(C3CC3)sc3cncn23)c1` (racemic) [Example 52, rac-(2-Cyclopropyl-imidazo[5,1-b]thiazol-3-yl)-m-tolyl-methanol]: the results for the IC50 in test [1] and in test [2] were 22.3 nM and 64.8 nM, respectively.

Consider `CCc1ccc(C(O)c2c(C3CC3)sc3cncn23)cc1` (racemic) [Example 53, rac-(2-Cyclopropyl-imidazo[5,1-b]thiazol-3-yl)-(4-ethyl-phenyl)-methanol], for which the IC50 in test [1] amounted to 1530 nM; in test [2], 60.1 nM.

Regarding `CCc1cccc(C(O)c2c(C3CC3)sc3cncn23)c1` (racemic) [Example 54, rac-(2-Cyclopropyl-imidazo[5,1-b]thiazol-3-yl)-(3-ethyl-phenyl)-methanol], the IC50 in test [1] turned out to be 1850 nM; in test [2], 120 nM.

With `COc1ccc(C(O)c2c(C3CC3)sc3cncn23)cc1` (racemic) [Example 55, rac-(2-Cyclopropyl-imidazo[5,1-b]thiazol-3-yl)-(4-methoxy-phenyl)-methanol], the IC50 in test [1] came to 2270 nM; in test [2], 86.9 nM.

For `COc1cccc(C(O)c2c(C3CC3)sc3cncn23)c1` (racemic) [Example 56, rac-(2-Cyclopropyl-imidazo[5,1-b]thiazol-3-yl)-(3-methoxy-phenyl)-methanol], the IC50 in test [1] amounted to 3310 nM; in test [2], 251 nM.

As for `Cc1sc2cncn2c1C(O)c1cccs1` (racemic) [Example 57, rac-(2-Methyl-imidazo[5,1-b]thiazol-3-yl)-thiophen-2-yl-methanol], the results for the half-inhibitory concentration (IC50) in test [1] and in test [2] were 829 nM and 433 nM, respectively.

Regarding `Cc1sc2cncn2c1C(O)c1ccc(N(C)C)cc1` (racemic) [Example 58, rac-(4-Dimethylamino-phenyl)-(2-methyl-imidazo[5,1-b]thiazol-3-yl)-methanol], the results for the IC50 in test [1] and in test [2] were more than 10200 nM and 1430 nM, respectively.

On to `OC(Cc1ccccc1)c1c(C2CC2)sc2cncn12` (racemic) [Example 59, rac-1-(2-Cyclopropyl-imidazo[5,1-b]thiazol-3-yl)-2-phenyl-ethanol], for which the IC50 in test [1] was 881 nM; in test [2], 249 nM.

With `OC(Cc1c(Cl)cccc1Cl)c1c(C2CC2)sc2cncn12` (racemic) [Example 60, rac-1-(2-Cyclopropyl-imidazo[5,1-b]thiazol-3-yl)-2-(2,6-dichloro-phenyl)-ethanol], the IC50 in test [1] came out at 455 nM; in test [2], 287 nM.

For `Cc1ccccc1CC(O)c1c(C2CC2)sc2cncn12` (racemic) [Example 61, rac-1-(2-Cyclopropyl-imidazo[5,1-b]thiazol-3-yl)-2-o-tolyl-ethanol], the IC50 in test [1] stood at 578 nM; in test [2], 431 nM.

As for `COc1cccc(CC(O)c2c(C)sc3cncn23)c1` (racemic) [Example 62, rac-2-(3-Methoxy-phenyl)-1-(2-methyl-imidazo[5,1-b]thiazol-3-yl)-ethanol], the results for the IC50 in test [1] and in test [2] were 7160 nM and 3150 nM, respectively.

As for `OC(c1c(C(F)(F)F)sc2cncn12)C1CCCCC1` (racemic) [Example 63, rac-Cyclohexyl-(2-trifluoromethyl-imidazo[5,1-b]thiazol-3-yl)-methanol], the IC50 in test [1] is 564 nM; in test [2], 27 nM.

For `OC(CC1CCCCC1)c1c(C(F)(F)F)sc2cncn12` (racemic) [Example 64, rac-2-Cyclohexyl-1-(2-trifluoromethyl-imidazo[5,1-b]thiazol-3-yl)-ethanol], the figures for the IC50 in test [1] and in test [2] were 3180 nM and 69 nM, respectively.

Regarding `OC(Cc1cccc2ccccc12)c1c(C2CC2)sc2cncn12` (racemic) [Example 67, rac-1-(2-Cyclopropyl-imidazo[5,1-b]thiazol-3-yl)-2-naphthalen-1-yl-ethanol], the IC50 in test [1] was 3510 nM; in test [2], 325 nM.

On to `C=Cc1sc2cncn2c1C(O)C1CCCCC1` (racemic) [Example 68, rac-Cyclohexyl-(2-vinyl-imidazo[5,1-b]thiazol-3-yl)-methanol], for which the IC50 in test [1] is 29.3 nM; in test [2] it was 14.4 nM.

Consider `OC(c1c(C2CC2)sc2cncn12)C1CCC2(CCCC2)CC1` (racemic) [Example 70, rac-(2-Cyclopropyl-imidazo[5,1-b]thiazol-3-yl)-spiro[4.5]dec-8-yl-methanol], for which the IC50 turned out to be 746 nM in test [1] and 72.1 nM in test [2].

On to `OC(CC1CCC(F)(F)CC1)c1c(C2CC2)sc2cncn12` (racemic) [Example 71, rac-1-(2-Cyclopropyl-imidazo[5,1-b]thiazol-3-yl)-2-(4,4-difluoro-cyclohexyl)-ethanol], for which the IC50 amounted to 263 nM in test [1] and 28.5 nM in test [2].
